Measurements: ChEMBL document CHEMBL3585240, “Synthesis and biological evaluation of caracasine acid derivatives” (Bioorg Med Chem, 2015)
Active and inactive are the calls of the source. No cut-off for these calls is given here.

Legend:
Escherichia coli [1] = assay: Antibacterial activity against Escherichia coli ATCC 35218 assessed as growth inhibition at 15 ug after 24 hrs by disc agar diffusion method; assay type: functional; conditions: ATCC 35218, 24 h, read-out: DIZ
Pseudomonas aeruginosa [2] = assay: Antibacterial activity against Pseudomonas aeruginosa ATCC 27853 assessed as growth inhibition at 15 ug after 24 hrs by disc agar diffusion method; assay type: functional; conditions: ATCC 27853, 24 h, read-out: DIZ
Bacillus cereus [3] = assay: Antibacterial activity against Bacillus cereus ATCC 14579 assessed as growth inhibition at 15 ug after 24 hrs by disc agar diffusion method; assay type: functional; conditions: ATCC 14579, 24 h, read-out: DIZ
Staphylococcus aureus [4] = assay: Antibacterial activity against Staphylococcus aureus ATCC 25923 assessed as growth inhibition at 15 ug after 24 hrs by disc agar diffusion method; assay type: functional; conditions: ATCC 25923, 24 h, read-out: DIZ
Staphylococcus aureus [5] = assay: Antibacterial activity against Staphylococcus aureus ATCC 25923 assessed as growth inhibition at 5 ug after 24 hrs by disc agar diffusion method; assay type: functional; conditions: ATCC 25923, 24 h, read-out: DIZ
Pseudomonas aeruginosa [6] = assay: Antibacterial activity against Pseudomonas aeruginosa ATCC 27853 assessed as growth inhibition at 5 ug after 24 hrs by disc agar diffusion method; assay type: functional; conditions: ATCC 27853, 24 h, read-out: DIZ
Bacillus cereus [7] = assay: Antibacterial activity against Bacillus cereus ATCC 14579 assessed as growth inhibition at 5 ug after 24 hrs by disc agar diffusion method; assay type: functional; conditions: ATCC 14579, 24 h, read-out: DIZ
Escherichia coli [8] = assay: Antibacterial activity against Escherichia coli ATCC 35218 assessed as growth inhibition at 5 ug after 24 hrs by disc agar diffusion method; assay type: functional; conditions: ATCC 35218, 24 h, read-out: DIZ
Pseudomonas aeruginosa [9] = assay: Antibacterial activity against Pseudomonas aeruginosa ATCC 27853 assessed as growth inhibition at 20 ug after 24 hrs by disc agar diffusion method in presence of sulbactam; assay type: functional; conditions: ATCC 27853, 24 h, read-out: DIZ
Escherichia coli [10] = assay: Antibacterial activity against Escherichia coli ATCC 35218 assessed as growth inhibition at 20 ug after 24 hrs by disc agar diffusion method in presence of sulbactam; assay type: functional, organism-based
Staphylococcus aureus [11] = assay: Antibacterial activity against Staphylococcus aureus ATCC 25923 assessed as growth inhibition at 20 ug after 24 hrs by disc agar diffusion method in presence of sulbactam; assay type: functional; conditions: ATCC 25923, 24 h, read-out: DIZ
Bacillus cereus [12] = assay: Antibacterial activity against Bacillus cereus ATCC 14579 assessed as growth inhibition at 20 ug after 24 hrs by disc agar diffusion method in presence of sulbactam; assay type: functional, organism-based

SMILES: CC[C@H]1OC(=O)C[C@@H](O)[C@H](C)[C@@H](O[C@@H]2O[C@H](C)[C@@H](O)[C@H](N(C)C)[C@H]2O)[C@@H](CCN2C[C@H](C)C[C@H](C)C2)C[C@@H](C)C(=O)/C=C/C(C)=C/[C@@H]1CO[C@@H]1O[C@H](C)[C@@H](O)[C@@H](OC)[C@H]1OC [TILMICOSIN]
- zone of inhibition at 15 µg/disc (Escherichia coli [1]): 18 mm
- zone of inhibition at 15 µg/disc (Pseudomonas aeruginosa [2]): 18 mm
- zone of inhibition at 15 µg/disc (Bacillus cereus [3]): 32 mm
- zone of inhibition at 15 µg/disc (Staphylococcus aureus [4]): 23 mm

SMILES: CC1COc2c(N3CCN(C)CC3)c(F)cc3c(=O)c(C(=O)O)cn1c23 (configuration not stated) [OFLOXACIN]
- zone of inhibition at 5 µg/disc (Staphylococcus aureus [5]): 25 mm
- zone of inhibition at 5 µg/disc (Pseudomonas aeruginosa [6]): 15 mm
- zone of inhibition at 5 µg/disc (Bacillus cereus [7]): 28 mm
- zone of inhibition at 5 µg/disc (Escherichia coli [8]): 24 mm

SMILES: CC1(C)S[C@@H]2[C@H](NC(=O)[C@H](N)c3ccccc3)C(=O)N2[C@H]1C(=O)O [AMPICILLIN]
- zone of inhibition at 20 µg/disc (Pseudomonas aeruginosa [9]): 12 mm
- growth inhibition (GI) (Escherichia coli [10]): inactive
- zone of inhibition at 20 µg/disc (Staphylococcus aureus [11]): 18 mm
- growth inhibition (GI) (Bacillus cereus [12]): inactive
